Assay results taken from patent US7612211B2, “Benzimidazole TRPV1 inhibitors” (Janssen Pharmaceutica N.V., priority 2006, dated 2009).

Columns and labels:
[1] = target: T1, hTRPV1 (Homo sapiens, UniProt Q8NER1); experiment: Human TRPV1 (hTRPV1) functional assay, FLIPR intracellular Ca2+, capsaicin challenge; type: cell-based; conditions: HEK293 cells expressing hTRPV1, capsaicin 0.030 μM challenge; for IC50: derived from a variety of test concentrations, read-out: IC50 value (symbol c); for inhibition at 0.5 µM: test concentration of 0.5 μm, read-out: percent inhibition (symbol a)
T1 construct: expressed in transfected cells; host or cells: HEK293
Outline: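 HEK293 cells expressing the channel, loaded with Calcium 3 dye, were exposed to compounds for 5 min before capsaicin 0.030 μM (~80% maximal). FLIPR Ca2+ read; IC50/EC50 from quadruplicate concentration-response, or percent inhibition at 0.5 μm or 0.2 μm.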

[2] = test system: male Sprague-Dawley rats; experiment: CFA-induced inflammatory pain, reversal of thermal hyperalgesia (radiant heat paw stimulator); type: in vivo; conditions: Rattus norvegicus, po, 10 mg/kg orally, 24 h after CFA, maximal during the 300 min test, read-out: % Reversal (maximal percent reversal of hypersensitivity)
Protocol: Compounds of the present invention were tested in animal models of inflammation and inflammatory pain. To assess the ability of test compounds to reverse thermal hyperalgesia, baseline response latencies on a radiant heat (RH) paw stimulator were obtained before an intraplantar injection of 100 μL (1 μg/μL) CFA (1:1 CFA:saline) in male Sprague-Dawley rats. Only withdrawal responses that were quick hind paw movements (with or without licking of the hind paw) were recorded. Paw movements associated with locomotion or a shifting of weight were not considered a withdrawal response. The stimulus intensity that produced 10-15 sec baseline withdrawal latencies was used and a maximum cutoff of 20 sec was imposed. Hypersensitivity was evaluated 24 h after CFA.
Following the post-inflammogen latency assessment, rats were orally dosed (2.5 mL/kg) with test compound (10 mg/kg) or vehicle (20% hydroxypropyl beta cyclodextran). To determine the time of peak effect, latencies were redetermined 30, 60, 100, 180 and 300 min after compound administration.
Data are presented as the maximal percent reversal of hypersensitivity obtained during the 300 min test, which was calculated for each animal according to the formula: % reversal=100%×(treatment response−post-inflammogen response)/(pre-inflammogen response−post-inflammogen response)

[3] = target: T1, hTRPV1; experiment: Human TRPV1 [3H]RTX binding assay (membranes of transfected HEK293 cells); conditions: inhibition of [3H]RTX binding
Protocol: Compounds of the present invention were tested for their ability to inhibit the binding of [^3H] RTX to hTRPV1 receptors in a [^3H] RTX binding assay as previously described (See, PCT International Application WO02/33411A1 and Elfrida G. R. et al., J. Pharmacol. Exp. Ther., 2002, 300(1): 9-17.)
HEK293 cells were transfected with hTRPV1 vanilloid receptors and washed with Hank's balanced Salt Solution, dissociated with cell dissociation buffer (Sigma), and then centrifuged at 1000×g for 5 min. Cell pellets were homogenized in cold 20 mM HEPES buffer (pH=7.4), containing 5.8 mM NaCl, 320 mM sucrose, 2 mM MgCl2, 0.75 CaCl2 and 5 mM KCl and centrifuged at 1000×g for 15 min. The resultant supernatant was then centrifuged at 40,000×g for 15 min. The pelleted membranes were stored in a freezer at −80° C.
Approximately 120 μg protein/mL from membranes were incubated with indicated concentrations of [^3H]RTX in 0.5 mL of the HEPES buffer (pH 7.4) containing 0.25 mg/mL fatty acid-free bovine serum albumin at 37° C. for 60 min. […] Bound radioactivity was quantified by scintillation counting. Non-specific binding was measured in the presence of 200 nM unlabeled RTX.
Data were calculated according to the equation: % inhibition=100%×[(total binding−binding)/(total binding−non specific binding)]. Ki values were calculated using a Prism program.

T1 sequence (Q8NER1 whole entry): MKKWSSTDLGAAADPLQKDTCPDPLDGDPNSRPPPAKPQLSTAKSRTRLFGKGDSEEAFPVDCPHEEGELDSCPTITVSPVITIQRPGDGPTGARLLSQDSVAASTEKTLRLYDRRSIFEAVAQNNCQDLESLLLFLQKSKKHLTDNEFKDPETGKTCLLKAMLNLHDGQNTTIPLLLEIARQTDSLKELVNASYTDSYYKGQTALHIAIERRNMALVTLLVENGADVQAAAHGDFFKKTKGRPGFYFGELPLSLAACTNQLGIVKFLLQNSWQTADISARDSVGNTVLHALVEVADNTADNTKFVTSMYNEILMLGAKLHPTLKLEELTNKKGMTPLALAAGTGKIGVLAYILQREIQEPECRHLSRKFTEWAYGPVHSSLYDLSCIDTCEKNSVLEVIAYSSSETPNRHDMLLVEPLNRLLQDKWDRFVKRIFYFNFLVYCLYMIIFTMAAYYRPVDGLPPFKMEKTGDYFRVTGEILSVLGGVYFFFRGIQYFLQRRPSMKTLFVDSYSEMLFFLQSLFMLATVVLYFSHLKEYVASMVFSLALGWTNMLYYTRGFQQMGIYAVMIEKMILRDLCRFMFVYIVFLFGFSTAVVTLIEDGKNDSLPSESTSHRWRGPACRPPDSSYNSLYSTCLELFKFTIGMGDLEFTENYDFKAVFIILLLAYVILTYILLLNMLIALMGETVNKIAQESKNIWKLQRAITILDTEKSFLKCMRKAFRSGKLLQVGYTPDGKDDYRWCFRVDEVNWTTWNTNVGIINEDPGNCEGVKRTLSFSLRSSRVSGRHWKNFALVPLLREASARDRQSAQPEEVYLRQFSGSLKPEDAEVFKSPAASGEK

| IC50 [1] | inhibition at 0.5 µM [1] | Ki [3] | inhibition at 0.2 µM ([1]; test concentration of 0.2 μm, read-out: percent inhibition (symbol b)) | SMILES | inhibition in vivo at 10 mg/kg [2] |
| --- | --- | --- | --- | --- | --- |
| 3 nM | 100% | 2.7 nM |  | NS(=O)(=O)c1ccccc1-c1ccc2[nH]c(COc3ccc(C(F)(F)F)cc3)nc2c1 [Cpd 1, 2-[2-(4-trifluoromethyl-phenoxymethyl)-1H-benzoimidazol-5-yl]-benzenesulfonamide] | 85% |
| 4.9 nM |  |  | 97% | CS(=O)(=O)c1ccccc1-c1ccc2[nH]c(COc3ccc(S(=O)(=O)C(F)(F)F)cc3)nc2c1 [Cpd 86, 5-(2-methanesulfonyl-phenyl)-2-(4-trifluoromethanesulfonyl-phenoxymethyl)-1H-benzoimidazole] | 100% |
| 2.1 nM | 94% |  |  | CS(=O)(=O)c1ccccc1-c1ccc2[nH]c(COc3ccc(C(F)(F)F)cc3)nc2c1 [Cpd 98, 5-(2-methanesulfonyl-phenyl)-2-(4-trifluoromethyl-phenoxymethyl)-1H-benzoimidazole] | 30% |
| 10 nM | 94% |  |  | CS(=O)(=O)Nc1ccccc1-c1ccc2[nH]c(COc3ccc(C(F)(F)F)cc3)nc2c1 [Cpd 101, N-{2-[2-(4-trifluoromethyl-phenoxymethyl)-1H-benzoimidazol-5-yl]-phenyl}-methanesulfonamide] | 22% |
